According to patent publication US20060069132A1, “Azolecarboxamide herbicides” (priority 2004, published 2006):

Legend:
woolly cupgrass = assay: Test C pre-/postemergence herbicide test; type: in vivo, Eriochloa villosa; settings: for Plant response rating, Cupgrass, Woolly / Plant response rating (0 = no effect, 100 = complete control), Cupgrass, Woolly: preemergence; for Plant response rating (0 = no effect, 100 = complete control), Cupgrass, Woolly: 62 g ai/ha
From the text: (§1) Seeds of plant species selected from bermudagrass (Cynodon dactylon (L.) Pers.), Surinam grass (Urochloa decumbens (Staph) R. D. Webster, previously named Brachiaria decumbens Stapf), cocklebur (Xanthium strumarium L.), corn (Zea mays L.), large crabgrass (Digitaria sanguinalis (L.) Scop.), woolly cupgrass (Eriochloa villosa (Thunb.) Kunth), giant foxtail (Setaria faberi Herrm.), goosegrass (Eleusine indica (L.) Gaertn.), johnsongrass (Sorghum halepense (L.) Pers.), kochia (Kochia scoparia (L.) Schrad.), lambsquarters (Chenopodium album L.), morningglory (Ipomoea coccinea L.), eastern black nightshade (Solanum ptycanthum Dunal), yellow nutsedge (Cyperus esculentus L.), pigweed (Amaranthus retroflexus L.), common ragweed (Ambrosia elatior L.), soybean (Glycine max (L.) Merr.), common (oilseed) sunflower (Helianthus annuus L.) and velvetleaf (Abutilon theophrasti Medik.) were planted and treated preemergence with test chemicals formulated in a non-phytotoxic solvent mixture which included a surfactant.
(§2) At the same time, plants selected from these crop and weed species and also winter barley (Hordeum vulgare L.), blackgrass (Alopecurus myosuroides Huds.), canarygrass (Phalaris minor Retz.), chickweed (Stellaria media (L.) Vill.), downy bromegrass (Bromus tectorum L.), green foxtail (Setaria viridis (L.) Beauv.), Italian ryegrass (Lolium multiflorum Lam.), wheat (Triticum aestivum L.), wild oat (Avenafatua L.) and windgrass (Apera spica-venti (L.) Beauv.) were treated with postemergence applications of some of the test chemicals formulated in the same manner. Plants ranged in height from 2 to 18 cm (1- to 4-leaf stage) for postemergence treatments. Plant species in the flooded paddy test consisted of rice (Oryza sativa), smallflower umbrella sedge (Cyperus difformis L.), ducksalad (Heteranthera limosa (Sw.) Willd.) and barnyardgrass (Echinochloa crus-galli (L.) Beauv.) grown to the 2-leaf stage for testing. Treated plants and controls were maintained in a greenhouse for 12 to 14 days, after which time all species were compared to controls and visually evaluated. Plant response ratings, summarized in Table C, are based on a scale of 0 to 100 where 0 is no effect and 100 is complete control. A dash (-) response means no test result.

large crabgrass [1] = assay: Test A pre-/postemergence herbicide test; type: in vivo, Digitaria sanguinalis; settings: for Plant response rating, Crabgrass, Large: Postemergence; for Crabgrass, Large plant response rating: Preemergence
Procedure, shortened: (§3)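 Visual injury rating on a 0–100 scale (0 no effect, 100 complete control) versus untreated controls, about ten days after treatment in greenhouse. Pre: directed soil spray onto seeded sandy loam. Post: spray to runoff on plants 2–10 cm tall at one- to two-leaf stage.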

johnsongrass = assay: Test C pre-/postemergence herbicide test; type: in vivo, Sorghum halepense; settings: for Plant response rating, Johnsongrass / Plant response rating (0 = no effect, 100 = complete control), Johnsongrass: preemergence; for Plant response rating (0 = no effect, 100 = complete control), Johnsongrass: 62 g ai/ha
From the text: as §1, §2

giant foxtail = assay: Test A pre-/postemergence herbicide test; type: in vivo, Setaria faberi; settings: for Plant response rating, Foxtail, Giant: Postemergence; for Foxtail, Giant plant response rating: Preemergence
Procedure, shortened: as §3

kochia = assay: Test C pre-/postemergence herbicide test; type: in vivo, Kochia scoparia; settings: for Plant response rating, Kochia / Plant response rating (0 = no effect, 100 = complete control), Kochia: preemergence; for Plant response rating (0 = no effect, 100 = complete control), Kochia: 62 g ai/ha
From the text: as §1, §2

corn = assay: Test C pre-/postemergence herbicide test; type: in vivo, Zea mays; settings: for Plant response rating (0 = no effect, 100 = complete control), Corn: 62 g ai/ha; for Plant response rating (0 = no effect, 100 = complete control), Corn / Plant response rating, Corn: preemergence; for Plant response rating, Corn: visual, 12 to 14 days
From the text: as §1, §2

large crabgrass [2] = assay: Test C pre-/postemergence herbicide test; type: in vivo, Digitaria sanguinalis; settings: for Plant response rating, Crabgrass, Large / Plant response rating (0 = no effect, 100 = complete control), Crabgrass, Large: preemergence; for Plant response rating (0 = no effect, 100 = complete control), Crabgrass, Large: 62 g ai/ha
From the text: as §1, §2

lambsquarters = assay: Test C pre-/postemergence herbicide test; type: in vivo, Chenopodium album; settings: for Plant response rating, Lambsquarters / Plant response rating (0 = no effect, 100 = complete control), Lambsquarters: preemergence; for Plant response rating (0 = no effect, 100 = complete control), Lambsquarters: 62 g ai/ha
From the text: as §1, §2

barnyardgrass = assay: Test A pre-/postemergence herbicide test; type: in vivo, Echinochloa crus-galli; settings: for Plant response rating, Barnyardgrass: Postemergence; for Barnyardgrass plant response rating: Preemergence
Procedure, shortened: as §3

velvetleaf = assay: Test A pre-/postemergence herbicide test; type: in vivo, Abutilon theophrasti; settings: for Plant response rating, Velvetleaf: Postemergence; for Velvetleaf plant response rating: Preemergence
Procedure, shortened: as §3

[3] = 125 g ai/ha, scale 0 (no effect) to 100 (complete control), visual, 12 to 14 days
[4] = 250 g ai/ha, scale 0 to 100 (0 no effect, 100 complete control), visual, 12 to 14 days
[5] = 500 g ai/ha, 0 to 100 scale, 0 no effect, 100 complete control
[6] = 2000 g ai/ha, 0 to 100 scale, 0 no effect, 100 complete control
[7] = 500 g ai/ha, visual rating, 0 to 100 scale (0 no effect, 100 complete control)
[8] = 125 g ai/ha, scale 0 (no effect) to 100 (complete control)
[9] = 250 g ai/ha, scale 0 to 100 (0 no effect, 100 complete control)
[10] = Preemergence, 500 g ai/ha, scale 0 to 100, 0 no effect, 100 complete control

CCCCn1nc(C(C)(C)C)cc1C(=O)Nc1cccc(C(=O)NCC)c1 [Compound 41]
Plant response rating, Cupgrass, Woolly (woolly cupgrass; 31 g ai/ha, scale 0 to 100): 0 | Plant response rating (0 = no effect, 100 = complete control), Cupgrass, Woolly (woolly cupgrass): 0 | Plant response rating, Cupgrass, Woolly (woolly cupgrass; [3]): 0 | Plant response rating, Cupgrass, Woolly (woolly cupgrass; [4]): 30 | Plant response rating, Crabgrass, Large (large crabgrass [1]; [5]): 20 | Plant response rating, Crabgrass, Large (large crabgrass [1]; [6]): 60 | Crabgrass, Large plant response rating (large crabgrass [1]; [7]): 40 | Crabgrass, Large plant response rating (large crabgrass [1]; [6]): 80 | Plant response rating, Johnsongrass (johnsongrass; 31 g ai/ha, scale 0 to 100): 0 | Plant response rating (0 = no effect, 100 = complete control), Johnsongrass (johnsongrass): 0 | Plant response rating, Johnsongrass (johnsongrass; [4]): 20 | Plant response rating, Foxtail, Giant (giant foxtail; [5]): 20 | Plant response rating, Foxtail, Giant (giant foxtail; [6]): 35 | Foxtail, Giant plant response rating (giant foxtail; [7]): 30 | Foxtail, Giant plant response rating (giant foxtail; [6]): 70 | Plant response rating, Kochia (kochia; 31 g ai/ha, scale 0 to 100): 0 | Plant response rating (0 = no effect, 100 = complete control), Kochia (kochia): 20 | Plant response rating, Kochia (kochia; [3]): 20 | Plant response rating, Kochia (kochia; [4]): 30 | Plant response rating (0 = no effect, 100 = complete control), Corn (corn): 0 | Plant response rating, Corn (corn; [8]): 0 | Plant response rating, Corn (corn; [9]): 0 | Plant response rating, Crabgrass, Large (large crabgrass [2]; 31 g ai/ha, scale 0 to 100): 0 | Plant response rating (0 = no effect, 100 = complete control), Crabgrass, Large (large crabgrass [2]): 90 | Plant response rating, Crabgrass, Large (large crabgrass [2]; [3]): 100 | Plant response rating, Crabgrass, Large (large crabgrass [2]; [4]): 100 | Plant response rating, Lambsquarters (lambsquarters; 31 g ai/ha, scale 0 to 100): 0 | Plant response rating (0 = no effect, 100 = complete control), Lambsquarters (lambsquarters): 50 | Plant response rating, Lambsquarters (lambsquarters; [3]): 90 | Plant response rating, Lambsquarters (lambsquarters; [4]): 100 | Plant response rating, Barnyardgrass (barnyardgrass; [5]): 30 | Plant response rating, Barnyardgrass (barnyardgrass; [6]): 60 | Barnyardgrass plant response rating (barnyardgrass; [7]): 40 | Barnyardgrass plant response rating (barnyardgrass; [6]): 75 | Plant response rating, Velvetleaf (velvetleaf; [5]): 25 | Plant response rating, Velvetleaf (velvetleaf; [6]): 25 | Velvetleaf plant response rating (velvetleaf; [7]): 25 | Velvetleaf plant response rating (velvetleaf; [6]): 40

CCCn1nc(C(C)(C)C)cc1C(=O)Nc1cccc(C(=O)NCC)c1 [Compound 57]
Plant response rating (0 = no effect, 100 = complete control), Cupgrass, Woolly (woolly cupgrass): 0 | Plant response rating, Cupgrass, Woolly (woolly cupgrass; [3]): 0 | Plant response rating, Cupgrass, Woolly (woolly cupgrass; [4]): 25 | Cupgrass, Woolly plant response rating (woolly cupgrass; [10]): 70 | Plant response rating (0 = no effect, 100 = complete control), Johnsongrass (johnsongrass): 20 | Plant response rating, Johnsongrass (johnsongrass; [3]): 65 | Plant response rating, Johnsongrass (johnsongrass; [4]): 80 | Johnsongrass plant response rating (johnsongrass; [10]): 85 | Plant response rating (0 = no effect, 100 = complete control), Kochia (kochia): 100 | Plant response rating, Kochia (kochia; [3]): 100 | Plant response rating, Kochia (kochia; [4]): 100 | Kochia plant response rating (kochia; [10]): 100 | Plant response rating (0 = no effect, 100 = complete control), Corn (corn): 0 | Plant response rating, Corn (corn; [8]): 0 | Plant response rating, Corn (corn; [9]): 0 | Corn plant response rating (corn; [10]): 0 | Plant response rating (0 = no effect, 100 = complete control), Crabgrass, Large (large crabgrass [2]): 95 | Plant response rating, Crabgrass, Large (large crabgrass [2]; [3]): 100 | Plant response rating, Crabgrass, Large (large crabgrass [2]; [4]): 100 | Crabgrass, Large plant response rating (large crabgrass [2]; [10]): 100 | Plant response rating (0 = no effect, 100 = complete control), Lambsquarters (lambsquarters): 100 | Plant response rating, Lambsquarters (lambsquarters; [3]): 100 | Plant response rating, Lambsquarters (lambsquarters; [4]): 100 | Lambsquarters plant response rating (lambsquarters; [10]): 100
